This note sets out measurements from ChEMBL document CHEMBL6071137, “Synthesis and biological studies of 2-aminothiophene derivatives as positive allosteric modulators of glucagon-like peptide 1 receptor” (2024).

Assay [1] addresses Glucagon-like peptide 1 receptor (Homo sapiens) (UniProt P43220). In words: Positive allosteric modulation of human GLP-1 receptor in HEK cells expressing luciferase2P assessed as cAMP level incubated for 4 hrs by luciferase based assay relative to GLP-1. As to conditions: filed as positive allosteric modulator. Set-up: concentration or dose not given beside the values. It counts as functional, cell-based.

The next assay concerns INS1(832/13). In words: Induction of glucose dependent insulin secretion in rat INS-1 832/13 cells expressing GLP-1R at 5 uM starved for 2 hrs in KRB buffer followed by glucose addition and measured after 90 mins by ELISA. The format is functional, cell-based. For orientation: In an ELISA, binding on a coated surface is turned into a signal by an enzyme label.
Assay [2] has as its system Mus musculus. In words: Anti-diabetic activity against overnight-fasted male CD1 mouse assessed as reduction in blood glucose concentration at 10 mg/kg, ip preadministered with compound for 45 mins followed by 2.5 g/kg dextrose addition and measured after 60 mins by iGTT test. It counts as functional, organism-based. As to conditions: time 105.0 min.
The test system of assay [3] is Mus musculus. In words: Anti-diabetic activity against overnight-fasted male CD1 mouse assessed as reduction in blood glucose concentration at 5 mg/kg, ip preadministered with compound for 45 mins followed by 2.5 g/kg dextrose addition and measured after 60 mins by iGTT test. The format is functional, organism-based. As to conditions: time 105.0 min.
Assay [4] relates to Mus musculus. In words: Anti-diabetic activity against overnight-fasted male CD1 mouse assessed as reduction in blood glucose concentration at 5 to 30 mg/kg, ip preadministered with compound for 45 mins followed by 2.5 g/kg dextrose addition and measured after 60 mins by iGTT test. The format is functional, organism-based. As to conditions: dose 5-30 mg/kg, time 105.0 min.
The test system of assay [5] is Mus musculus. In words: Anti-diabetic activity against overnight-fasted male CD1 mouse assessed as reduction in blood glucose concentration at 10 to 30 mg/kg, ip preadministered with compound for 45 mins followed by 2.5 g/kg dextrose addition and measured after 30 mins by iGTT test. It counts as functional, organism-based. As to conditions: dose 10-30 mg/kg, time 75.0 min.

The subject of assay [6] is Mus musculus. In words: Anti-diabetic activity against overnight-fasted male CD1 mouse assessed as reduction in blood glucose concentration at 10 to 30 mg/kg, ip preadministered with compound for 45 mins followed by 2.5 g/kg dextrose addition and measured after 60 mins by iGTT test relative to control. The format is functional. Set-up: scale not given: the % may be the effect or the level left. As to conditions: dose 10-30 mg/kg, time 105 min, 1.75 h.

The test system of assay [7] is Mus musculus. In words: Anti-diabetic activity against overnight-fasted male CD1 mouse assessed as reduction in blood glucose concentration at 10 mg/kg, ip preadministered with compound for 45 mins followed by 2.5 g/kg dextrose addition and measured after 60 mins in the presence of sitagliptin by iGTT test relative to control. It counts as functional. Set-up: scale not given: the % may be the effect or the level left. As to conditions: time 105 min, 1.75 h.

The target of assay [8] is Glucagon-like peptide 1 receptor (Homo sapiens) (UniProt P43220). In words: Positive allosteric modulation of human GLP-1 receptor in HEK cells expressing luciferase2P assessed as fold increase in GLP-1R activity incubated for 4 hrs in presence of GLP-1 by luciferase based assay relative to GLP-1 alone. It counts as cell-based. As to conditions: filed as positive allosteric modulator.

The target is the same in assay [9]. In words: Positive allosteric modulation of human GLP-1 receptor in HEK cells expressing luciferase2P incubated for 4 hrs in presence of 10 nM of GLP-1 by luciferase based assay. The format is cell-based. As to conditions: filed as positive allosteric modulator, dose 0.78-100 µM.
The target is the same in assay [10]. In words: Positive allosteric modulation of human GLP-1 receptor in HEK cells expressing luciferase2P at 5 uM incubated for 4 hrs in presence of varying concentrations of GLP-1 by luciferase based assay. It counts as cell-based. As to conditions: filed as positive allosteric modulator.
Assay [11] is described as follows: Induction of glucose dependent insulin secretion in rat INS-1 832/13 cells expressing GLP-1R assessed as fold increase at 5 uM starved for 2 hrs in KRB buffer followed by 16.7 mM of glucose addition and measured after 90 mins in presence of GLP-1 by ELISA. As to conditions: 1.5 h. The format is functional, INS1(832/13).
Assay [12] concerns the target T1, Vasoactive intestinal polypeptide receptor 1 (Homo sapiens) (UniProt P32241).
T1 sequence (whole entry): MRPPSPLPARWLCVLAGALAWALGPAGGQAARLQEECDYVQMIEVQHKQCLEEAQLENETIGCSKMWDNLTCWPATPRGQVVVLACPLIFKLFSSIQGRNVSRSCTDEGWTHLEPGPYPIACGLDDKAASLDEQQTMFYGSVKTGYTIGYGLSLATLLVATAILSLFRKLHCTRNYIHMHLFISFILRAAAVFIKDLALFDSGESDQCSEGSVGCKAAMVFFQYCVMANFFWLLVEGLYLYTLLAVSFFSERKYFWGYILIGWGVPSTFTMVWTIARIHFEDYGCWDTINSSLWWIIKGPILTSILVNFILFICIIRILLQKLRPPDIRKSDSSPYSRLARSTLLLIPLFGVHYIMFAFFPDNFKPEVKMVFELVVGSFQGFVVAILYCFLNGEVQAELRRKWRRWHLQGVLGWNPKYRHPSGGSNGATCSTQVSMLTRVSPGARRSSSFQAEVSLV
In words: Positive allosteric modulation of VIPR1 (unknown origin) transfected in HEK cells expressing luciferase2P assessed as increase in luciferase activity. It counts as cell-based. As to conditions: filed as positive allosteric modulator.

Assay [13] deals with T2, Gastric inhibitory polypeptide receptor (Homo sapiens) (UniProt P48546).
T2 sequence (whole entry): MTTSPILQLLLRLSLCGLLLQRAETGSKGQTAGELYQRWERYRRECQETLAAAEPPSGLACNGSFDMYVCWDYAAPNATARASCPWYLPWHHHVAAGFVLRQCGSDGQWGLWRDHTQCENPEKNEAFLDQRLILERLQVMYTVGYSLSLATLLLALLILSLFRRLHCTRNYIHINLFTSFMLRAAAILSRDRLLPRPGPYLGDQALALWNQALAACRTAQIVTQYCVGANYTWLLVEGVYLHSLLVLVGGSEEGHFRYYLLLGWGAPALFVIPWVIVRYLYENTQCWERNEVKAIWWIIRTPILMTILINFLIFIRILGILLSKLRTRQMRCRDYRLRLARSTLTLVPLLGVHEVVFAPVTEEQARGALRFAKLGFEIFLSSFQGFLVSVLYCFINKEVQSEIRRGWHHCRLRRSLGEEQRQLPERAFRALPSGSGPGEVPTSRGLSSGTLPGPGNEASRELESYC
In words: Positive allosteric modulation of GIPR (unknown origin) transfected in HEK cells expressing luciferase2P assessed as increase in luciferase activity. The format is cell-based. As to conditions: filed as positive allosteric modulator.

In assay [14] the target is Glucagon receptor (Homo sapiens) (UniProt P47871). In words: Positive allosteric modulation of glucagon receptor (unknown origin) transfected in HEK cells expressing luciferase2P assessed as increase in luciferase activity. It counts as cell-based. As to conditions: filed as positive allosteric modulator.

Active and inactive are the calls of the source. The rule behind the calls is not given here.

Chain of Glucagon-like peptide 1 receptor (Homo sapiens) (P43220 whole entry): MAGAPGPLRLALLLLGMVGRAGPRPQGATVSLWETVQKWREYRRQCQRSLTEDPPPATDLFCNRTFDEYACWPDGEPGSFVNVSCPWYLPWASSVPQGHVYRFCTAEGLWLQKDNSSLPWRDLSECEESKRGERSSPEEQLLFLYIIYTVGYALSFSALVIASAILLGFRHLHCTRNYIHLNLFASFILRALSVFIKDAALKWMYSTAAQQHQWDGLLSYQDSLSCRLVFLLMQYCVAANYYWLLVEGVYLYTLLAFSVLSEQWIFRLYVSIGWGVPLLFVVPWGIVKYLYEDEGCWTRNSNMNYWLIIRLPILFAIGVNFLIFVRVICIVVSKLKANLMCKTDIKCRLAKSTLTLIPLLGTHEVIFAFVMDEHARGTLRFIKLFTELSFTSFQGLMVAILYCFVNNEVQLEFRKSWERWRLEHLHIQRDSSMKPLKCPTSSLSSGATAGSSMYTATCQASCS
Chain of Glucagon receptor (Homo sapiens) (P47871 whole entry): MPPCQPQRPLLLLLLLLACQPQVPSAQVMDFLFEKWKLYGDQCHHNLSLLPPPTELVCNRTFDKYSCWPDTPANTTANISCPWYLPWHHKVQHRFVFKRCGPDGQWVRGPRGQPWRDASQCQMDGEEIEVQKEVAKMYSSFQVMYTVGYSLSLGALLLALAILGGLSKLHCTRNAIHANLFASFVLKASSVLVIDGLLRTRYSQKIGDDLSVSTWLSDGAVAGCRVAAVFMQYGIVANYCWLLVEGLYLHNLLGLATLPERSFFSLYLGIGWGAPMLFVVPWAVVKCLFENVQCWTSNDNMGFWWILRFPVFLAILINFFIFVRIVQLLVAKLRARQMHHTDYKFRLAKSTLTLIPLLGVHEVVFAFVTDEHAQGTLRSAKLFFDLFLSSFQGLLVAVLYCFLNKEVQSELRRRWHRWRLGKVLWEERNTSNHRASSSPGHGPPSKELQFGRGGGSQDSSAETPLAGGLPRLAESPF

Turning to `Cc1ccc(C(=O)c2c(N)sc3c2CCC(C)(C)C3)cc1`, the Activity is 268% in [1], 50% with Mus musculus [6], ~75% with Mus musculus [7] and “Dose-Dependent Effect” in assay [9]. Moreover, the outcome (in the assay on INS1(832/13); in the assay on Mus musculus [2]; in the assay on Mus musculus [3]; with Mus musculus [4]; in the assay with Mus musculus [5]; in [10]) was Active. Besides, the outcome in assay [12], in [13] and in [14] was Active. In addition, the fold change (FC) in assay [8] was > 2; in assay [11], >2.
